Measured values from patent publication US20030208035A1, “Antifungal and/or antibacterial peptides, preparation methods, compositions containing same and methods of treating mammals and/or plants” (priority 2000, published 2003).
In brackets after ≈: the same amount, converted by molar mass. Read-outs that look alike come from different tables or passages of the source. Bridges are numbered along the chain shown (N, C = ends). Where no end group is shown, it is not given here.

Experiments:
[1] = test system: fluconazole-resistant C. albicans; assay: microbe, parasite or virus in culture; format: cell-based, Candida albicans
Description: (§1) Candida yeasts (C. albicans, C. glabrata, C. dubliensis, C. tropicalis, C. kefyr, C. krusei and C. parapsilosis—donated by Dr. H. Koenig, Hôpital Civil, Strasbourg), fluconazole-resistant C. albicans (n^o245962, n^o2332, n^o246335 and n^o3552, donated by Drs. J.Meis and J. Mouton, University Hospital, Microbiology Department, Nijmegen, Netherlands), and Cryptoccocus neoformans (donated by Dr. H. Koenig, Hôpital Civil, Strasbourg) were seeded on Sabouraud-Cloramphenicol Agar slant gelose (Biomerieux) and left to incubate for 24 h at 30° C. (Candida sp.) and for 72 h at 37° C. (Cryptoccocus neoformans).
(§2) Some yeast colonies were placed in suspension in liquid Sabouraud medium (Biomerieux) to obtain a final concentration of 0.1 OD at 600 nm corresponding to 2.5.10^6 yeasts/ml.
(§3) The yeast suspension was adjusted to 5.10^3 yeast/ml in Sabouraud medium.
(§4) 100 μl of peptide dilutions (concentration of 50 with 0.097 μg/ml peptide) were deposited in microtitration plates. After adding […] of yeast suspension with 5.10^3 yeast/ml i.e. 500 yeasts, the test plates were incubated 24 h at 30° C. (Candida) under slow shaking or 72 h at 37° C. (Cryptoccocus).
(§5) Determination of minimal inhibiting concentrations (MIC) was made by measuring absorbency at 600 nm using a spectrophotometer-microtitration plate reader. The MIC score was set at a growth inhibition rate of 50%.

[2] = test system: A. fumigatus; format: cell-based
Description: (§6) The antifungal activity was detected by a growth inhibition test in a liquid medium.
(§7) The filamentous fungi (A. fumigatus, A. flavus and A. terreus, donated by Dr. H. Koenig, Hôpital Civil, Strasbourg; and S. prolificans and F. solani donated by Drs. J. Meis and J. Mouton, University hospital, Microbioolgy Department, Nijmegen, Netherlands) were seeded on Malt-Agar slant gelose (Biomerieux) and incubated 7 days at 37° C.
(§8) The spores were then collected with 10 ml YPG medium containing 0.05% Tween 20 and filtered through a gauze. The spores were centrifuged 10 min at 1700 rpm, the residue was collected in YPG (1 g Yeast extract, 1 g Peptone, 3 g Glucose per 1 l).
(§9) The suspension was counted with a Coverslide and adjusted to 10^4 spores/ml.
(§10) 100 μl of peptide dilutions (concentration of 50 with 0.097 μg/ml peptide) were deposited in microtitration plates. 100 μl with 10^4 spores/ml of filamentous fungi, i.e. 1000 spores, were then added.
(§11) The test plates were incubated 48 h at 37° C.
(§12) Determination of minimum inhibiting concentrations (MIC) was made by observing well cover rate. The MIC score was set at 50% well covering.

[3] = test system: S. prolificans; assay: Test to detect activity against filamentous fungi (MIC); format: cell-based
Description: as §6, §7, §8, §9, §10, §11, §12

[4] = test system: F. solani; assay: as above; format: cell-based; details: F. solani FFUS 8591
Description: as §6, §7, §8, §9, §10, §11, §12

[5] = test system: Neurospora crassa; format: cell-based; details: 48 h
Description: (§13) 100 μl of peptide dilutions (concentration 50 with 0.097 mg/ml peptide) were deposited in microtitration plates.
(§14) After adding 100 μl of frozen spores with 10^4 spores/ml of A. brassicola and N. crassa (donated by Dr. Bullet, IBMC, Strasbourg) the test plates were incubated 48 h at 30° C.
(§15) Determination of minimal inhibiting concentrations (MIC) was made by observing well cover rate. The MIC was set at 50% well covering.

[6] = test system: Alternaria brassicola; format: cell-based; details: 48 h
Description: as §13, §14, §15

[7] = test system: C. glabrata; format: cell-based
Description: as §1, §2, §3, §4, §5

[8] = test system: C. kefyr; format: cell-based
Description: as §1, §2, §3, §4, §5

[9] = test system: C. krusei; format: cell-based
Description: as §1, §2, §3, §4, §5

[10] = test system: Candida albicans (IHEM 8060 strain); assay: Candida albicans infected model, lethal in mice (disseminated candidiasis); format: in vivo
Description: Heliomycin and its analogues were tested for in vivo antifungal activity in a model infected with Candida albicans, lethal in mice. The pathogenic agent Candida albicans (IHEM 8060 strain) was inoculated by intravenous route (i.v.) at a dose of 2.5×10^6 CFU/mouse. the peptides were administered by i.v. route in 4 injections 6 h, 24 h, 48 h and 72 h after infection. Assessment criteria for activity were evaluation of survival and morbidity at 7 days. The morbidity scores, which take into account general state of health (condition of fur, mobility, hydration) were determined for each mouse with values ranging from 0 to 5 and defined below: 0=dead, 1=moribund, 2=very ill, 3=ill, 4=slightly ill, 5=healthy. The sum of the individual scores was calculated for each group, a score of 50 for a group of 10 mice meaning that all the mice were healthy.
Following a standard protocol, groups of 10 Swiss OF1 male mice weighing 12 g were infected via i.v. route with a dose of 2.5×10^6 CFU/mouse. Heliomycin and Ard1 were administered by i.v. route in 4 injections, 6 h, 24 h, 48 h and 72 h after infection. For each peptide, 2 doses were tested: 10 mg/kg and 30 mg/kg. A placebo group was injected with peptide solvent, 0.9% sodium chloride.
In this experiment, inoculation of the mice with 2.5.10^6 CFU/mouse was 50% lethal at day 5 in the group which received placebo treatment. The first deaths occurred on post-infection day 2.5 and median mortality occurred on post-infection day 5. On day 7, 5 mice were alive and the morbidity score 15/50.
In this experiment, inoculation of Swiss OF1 mice weighing 15 g with 3.10^6 CFU of Candida albicans induces 50% mortality on day 4 after infection in the group treated with the placebo. The first deaths occur 2.5 days after infection, and 100% of the mice were dead on day 5.5.
In this experiment, inoculation of the mice with 2.5.10^6 CFU/mouse was 50% lethal at day 5 and 100% at day 8 for mice in the placebo group. The first death occurred 3 days after infection. The morbidity score fell rapidly below 30/50 (25/50 at day 2.5).
The pEM35 peptide was administered at doses of 10 and 30 mg/kg/injection with 3 daily doses for 4 days (1 h, 5 h and 10 h post-infection on day 0; at 8 h, 14 h and 20 h on days 1, 2 and 3), i.e., daily doses totalling 30 and 90 mg/kg.

[11] = test system: Aspergillus fumigatus; assay: anti-Aspergillus fumigatus growth inhibition test in liquid medium (96-well microplates); format: cell-based
Description: (§16) The anti-Candida albicans and anti-Aspergillus fumigatus activities of the different analogues were assessed using a growth inhibition test in liquid medium made in 96-well microplates. The activity of the purified peptides was tested for different dilutions of each peptide and was compared with those of heliomycin and Ard1 quantified under the same conditions.
The spores of Aspergillus fumigatus were derived from a stock frozen at −80° C., containing 10^7 spores/ml in a 25% glycerol solution. After slow thawing at room temperature, the spores were placed in suspension in PDB culture medium (12 g Potato Dextrose Broth medium, per […] water). 10 μl of each sample were deposited in the wells of microtitration plates in the presence of 90 μl PDB culture medium supplemented with tetracycline (100 μg/ml) and cefotaxime (1 μg/ml) containing the spores (at a final concentration of 1000 spores/well). Control cultures were systematically made in which 10 μl of sample were replaced by 10 μl of sterile water. Media sterility was controlled by incubating 10 μl sterile water in the presence of 90 μl of medium. The samples were incubated at 37° C. for 24 h to 48 h in a humid atmosphere, and the antifungal activity was quantified by a score of 0 to 9 taking germination account; the size and morphology of the hyphs were determined under the binocular microscope. […].

[12] = test system: Candida albicans; assay: anti-Candida albicans growth inhibition test in liquid medium (96-well microplates); format: cell-based; details: fold relative to Ard1
Description: as §16
The activity test was made directly on yeasts derived from a stock frozen at −80° C., in Sabouraud medium containing 15% glycerol. The density of the yeasts in the stock was adjusted to an optical density of 0.4 OD at 600 nm. After slow thawing at room temperature, the yeast suspension was reduced by dilution to an optic density of 1 mOD at 600 nm in Sabouraud medium, and 90 μl of this dilution were deposited in the wells of microtitration plates in the presence of 10 μl of sample to be tested. Control samples were systematically made in which 10 μl of sample were replaced by 10 μl of sterile water. Media sterility was controlled by incubating 10 μl sterile water in the presence of 90 μl of medium. The samples were incubated at 30° C. for 40 h under slight stirring and the antifungal activity was quantified by measuring optic density at 600 nm.

[13] = test system: C. tropicalis; format: cell-based
Description: as §1, §2, §3, §4, §5

[14] = test system: C. parapsilosis; format: cell-based
Description: as §1, §2, §3, §4, §5

[15] = test system: C. albicans; format: cell-based, Candida albicans; details: 24 h
Description: as §1, §2, §3, §4, §5

[16] = fluconazole-resistant C. albicans n° 2332
[17] = fluconazole-resistant C. albicans n° 245962
[18] = fluconazole-resistant C. albicans n° 246335
[19] = FIGS. 2-3, 10 mg/kg i.v., 4 injections

C[C@@H]1[C@H](O)[C@@H](C)/C=C/C=C/C=C/C=C/C=C/C=C/C=C/[C@H](O[C@@H]2O[C@H](C)[C@@H](O)[C@H](N)[C@@H]2O)C[C@@H]2O[C@](O)(C[C@@H](O)C[C@@H](O)[C@H](O)CC[C@@H](O)C[C@@H](O)CC(=O)O[C@H]1C)C[C@H](O)[C@H]2C(=O)O [ampho B, Amphotericin B]
MIC [1, 16]: 0.25 µg/mL (≈ 0.271 µM) | MIC [1, 17]: 0.125 µg/mL (≈ 0.135 µM) | MIC [1, 18]: 0.0625 µg/mL (≈ 0.0676 µM) | MIC ([2]; A. fumigatus FASF 5161): 0.5 µg/mL (≈ 0.541 µM) | MIC ([3]; S. prolificans FSSP 7902): > 16 µg/mL | MIC ([3]; S. prolificans FSSP 7908): > 16 µg/mL | MIC [4]: > 16 µg/mL

OC(Cn1cncn1)(Cn1cncn1)c1ccc(F)cc1F [fluconazole]
MIC ([1]; Candida albicans, fluconazole-resistant C. albicans n° 3552, read-out: MIC): > 64 µg/mL | MIC [1, 16]: > at 64 μg/ml | MIC [1, 17]: > at 64 μg/ml | MIC [1, 18]: > at 64 μg/ml

DKLIGSCVWGAVNYTSNCNAECKRRGYKGGHCGSFANVNCWCET (disulfide 7-32, 18-40, 22-42 (inferred)) [Ard1]
MIC [5]: 0.097 µg/mL | MIC [6]: >25 µg/mL | MIC ([2]; 48 h): 12.5 µg/mL | MIC [7]: >25 µg/mL | MIC [8]: >25 µg/mL | MIC [9]: 3.125 µg/mL | effect on survival and general condition of the mice [10, 19]: did not make it possible to improve survival | time after infection at which 50% of mice were dead [10, 19]: 2 days | mice alive on day 7 (out of 10) ([10]; FIGS. 2-3, 30 mg/kg i.v., 4 injections): 5 mice | morbidity score at day 7 ([10]; FIGS. 2-3, 30 mg/kg i.v., 4 injections, 50 = all 10 mice healthy): 16/50 | delay of onset of the first death ([10]; FIGS. 2-3, 30 mg/kg i.v., 4 injections, vs placebo): 24 h | mice alive on day 7 (out of 10) ([10]; FIGS. 4-5, 10 mg/kg, placebo 5 alive): 8 mice | delay of onset of the first death ([10]; FIGS. 4-5, 2.5.10^6 CFU/mouse, 10 mg/kg, placebo first deaths day 2.5): 36 h | effect on mouse survival relative to placebo treatment ([10]; FIGS. 6-7, 3.10^6 CFU, 5 mg/kg, three i.v. injections, 10 mice of 15 g): does not significantly increase mouse survival | effectiveness in the candidiasis infected model ([10]; FIGS. 6-7, dose 5 mg/kg): not effective | Activity A.f. (relative activity in relation to heliomycin) ([11]; fold relative to heliomycin): 2

DKLIGSCVWGAVNYTSNCNAECKRRGYKGGHCGSFLNVNCWCER (disulfide 7-32, 18-40, 22-42 (inferred)) [pEM48]
MIC [5]: 0.39 µg/mL | MIC [6]: 12.5 µg/mL | Activity C.a. (relative activity in relation to Ard1) [12]: 6-12 | MIC [13]: 3.125 µg/mL | MIC [7]: >25 µg/mL | MIC [8]: 25 µg/mL | MIC [14]: 0.78 µg/mL | MIC [9]: 1.56 µg/mL | MIC [15]: 1.56 µg/mL | Activity A.f. (relative activity in relation to Ard1) ([11]; fold relative to Ard1): 1-2
